Article PMC5388927 (Virology, 2008)

Experiments:
WNV VLP = type: cell-based, West Nile virus; conditions: 1.5 μM
DENV-1 VLP = type: cell-based, dengue virus (DENV-1); conditions: 1.5 μM
WEEV (strain Cova 746) = type: cell-based, Western equine encephalitis virus
[1] = test system: VSV (New Jersey serotype); type: cell-based, vesicular stomatitis virus
poliovirus = conditions: cited from earlier work
SARS-CoV = conditions: cited from earlier work
[2] = test system: herpes simplex virus (type 1); conditions: cited from earlier work
vaccinia virus = conditions: cited from earlier work
HIV-1 = conditions: cited from earlier work
in vitro = conditions: African green monkey

O[C@H]1[C@H]2c3cc4c(cc3CN3CCC(=C[C@@H]1O)[C@H]23)OCO4 [Lycorine]
reduction of luciferase signals (WNV VLP): 1400 fold
reduction of luciferase signals (DENV-1 VLP): 1200 fold
suppression of viral titer (WEEV (strain Cova 746)): suppressed titers of neither WEEV nor VSV
suppression of viral titer [1]: suppressed titers of neither WEEV nor VSV
antiviral activity (poliovirus): inhibit
suppression of viral translation (poliovirus): ~90%
antiviral activity (SARS-CoV): inhibit
antiviral activity [2]: inhibit
antiviral activity (vaccinia virus): inhibit
antiviral activity (HIV-1): does not inhibit
viability at 1.5 µM (in vitro): > 90%
